In US9096499B2, “Compounds for treatment of cell proliferative diseases” (Board of Regents, The University of Texas System, priority 2003, dated 2015):

Columns and labels:
OCI MM cells = assay: MTT cell growth and survival assay, OCI MM cells; format: cell-based; settings: 72 hours
Procedure: (§1) To determine the effect of AG and WP compounds on MM cell growth/survival, MM cells were incubated with the indicated concentration of AG or WP for 72 hours before cell growth and survival were estimated by MTT assay.
(§2) To determine the effect of AG and WP compounds on MM cell growth/survival MM cells were incubated with the indicated concentration of AG or WP for 72 hours before cell growth and survival were estimated by MTT assay.

MM-1 MM cells = assay: MTT cell growth and survival assay, MM-1 MM cells; format: cell-based; settings: 72 hours
Procedure: as §1, §2

U266 MM cells = assay: MTT cell growth and survival assay, U266 MM cells; format: cell-based; settings: 72 hours
Procedure: as §1, §2

c-myc = c-myc protein expression by immunoblot in MM cells; format: cell-based; set-up: key to C-Myc: (inhibition = ↓); (no effect) = —
Procedure: (§3) To determine the effect of compounds on both Stat3 activation and c-myc protein expression MM-1, OCI-My5 and U266 cells were incubated with 25 μM of AG1801, AG490, WP1038, WP1039, WP1051, or WP1052 for 2 hours before cells were stimulated with 2 ng/ml IL-6 for 10 min. Cell lysates were prepared and immunoblotted for p-Stat3, Stat3, c-myc and actin (as a control).
To determine the temporal effects and mechanism of action of AG490 and AG1801 action on c-myc expression in MM cells, MM-1 cells were incubated with 0, 25, or 50 μM of AG490 or AG1801 and harvested at 30, 60, or 120 min. Lysates were immunoblotted for c-myc or actin as a protein loading control. […] Semi-quantitative PCR was used to measure changes in c-myc mRNA extracted from cells treated for 30 min with AG1801 at 25 μM. GAPDH PCR was used as a control.
These compounds were evaluated for their signal inhibitory and anti-proliferative/apoptotic properties on multiple myeloma, lymphoma and chronic myelogenous leukemia cell lines. WP1015, WP1034, AG1801, and AG490 were tested across a range of concentrations (6,12, and 25 μM) for their ability to inhibit c-myc expression using immunoblots.
These immunoblots tested a range of concentrations (1.56-25 μM for WP compounds) and used β-actin as a control.

Stat3 = assay: IL-6 mediated Stat3 activation (p-Stat3 immunoblot) in MM cells; format: cell-based; set-up: key to P-Stat 3: (inhibition = ↓); (no effect) = —
Procedure: To examine the effect of newly synthesized AG and WP compounds on cytokine-mediated Stat activation, multiple myeloma (MM-1) cells were pretreated with AG490 or AG1801 at 2.5, 12, and 25 μM concentrations (for 2 hr) before stimulating cells with IL-6 or IFN-α for 10 min. Stat3 and Stat1 expression and activation were examined by immunoblotting.
as §3, with “control). Both Stat3 activation and c-myc expression were effected by WP and AG compounds.” for “control).”

[1] = test system: MM colonies from bone marrow aspirates of MM patients; assay: Primary MM colony formation in methyl-cellulose; format: cell-based, human; settings: 25 μM, 7 to 10 days
Procedure: To determine whether these compounds effect primary MM colony growth bone marrow aspirates from MM patients were partially-purified by magnetic bead separation and analyzed for immunoglobulin heavy-chain gene rearrangement by PCR. Cells were grown as colonies in methyl-cellulose in the presence or absence of AG compound as noted for 7 to 10 days. Control colonies were examined for Ig heavy chain gene rearrangement to confirm the clonal nature of the population.

OCI-My5 cells = assay: Caspase activation and PARP cleavage in OCI-My5 cells; format: cell-based; settings: 12.5 and 25 μM
Procedure: To determine whether AG1801 effects caspase activation in MM cells, OCI-My5 cells were treated as described above before cell lysates were examined for casapase activation and PARP cleavage. […] At 12.5 and 25 μM, AG490 was ineffective in caspase activation and PARP clevage in these cells.

Jak2/Stat3 signaling = settings: literature; cited from earlier work
[2] = literature; cited from earlier work

Compound: N#C/C(=C\c1ccc(O)c(O)c1)C(=O)NCc1ccccc1 [AG 490, reference compound]
- IC50 (OCI MM cells; MTT assay): > 12.5 µM
- Growth and survival of OCI cells (in words) (OCI MM cells; MTT, FIG. 2B/3B): effective in reducing the growth and survival
- IC50 (MM-1 MM cells; MTT assay, read-out: IC50 (μM) MM1): > 12.5 µM
- Growth and survival of MM1 cells (in words) (MM-1 MM cells; MTT, FIG. 2A/3A): effective in reducing the growth and survival
- Growth and survival of U266 cells (in words) (U266 MM cells; MTT, FIG. 2C/3C): effective in reducing the growth and survival
- IC50 (U266 MM cells; Homo sapiens, U-266, MTT assay): > 12.5 µM
- Inhibition of c-myc protein expression (c-myc; 6, 12, 25 μM, AG490 up to 50 μM): little or no effect
- c-myc expression, temporal effects (c-myc; MM-1 cells, 25 and 50 μM, 30, 60, 120 min): completely unable to affect c-myc expression
- C-Myc (c-myc; c-myc downregulation, immunoblot): ↓
- Suppression of IL-6 signaling (Stat3 activation) (Stat3; MM-1 cells, 2 hr pretreatment, 12 and 25 μM, IL-6 10 min): inactive
- P-Stat 3 (Stat3; Stat3 inhibition, immunoblot): ↓
- P-Stat 3: concentration at which inhibition is seen (Stat3; immunoblot): > 25 µM
- Inhibition of MM colony formation [1]: less effective
- Caspase activation (caspase 3 and caspase 8) (OCI-My5 cells): ineffective
- PARP cleavage (OCI-My5 cells): ineffective
- Concentration needed to achieve inhibition of Jak2/Stat3 signaling and anti-tumor effects (Jak2/Stat3 signaling): 50 to 100 µM
- Activity in animal studies [2]: limited activity
